Laboratory results as given in patent US5972932A, “Anesthetic method and composition” (Eli Lilly and Company, priority 1997, dated 1999).

Key:
[1] = test system: 5-HT2C (formorly knowm as 5-HT1C receptor) receptor; experiment: pharmacological studies, 5-HT2C receptor activity; conditions: formerly 5-HT1C receptor
[2] = test system: muscarinic cholinergic receptor; experiment: pharmacological studies, muscarinic cholinergic receptor activity

With Cc1cc2c(s1)Nc1ccccc1N=C2N1CCN(C)CC1 [olanzapine, 2-methyl-4-(4-methyl-1-piperazinyl)-10H-thieno[2,3-b][1,5]benzodiazepine] the “activity at the 5-HT2C receptor” value [1] was “active” and the “muscarinic cholinergic receptor activity” value [2] was “has muscarinic cholinergic receptor activity”.
